This passage reports IC50 results from US10590077B2, “TRPV4 antagonists” (GlaxoSmithKline Intellectual Property (No.2) Limited, priority 2016, dated 2020).

The target of the test is human TRPV4 (Homo sapiens (Human), UniProt Q9HBA0). Briefly: FLIPR assay for hTRPV4 expressed in BHK cells. The format is cell-based. On the procedure: FLIPR Assay for hTRPV4 Expressed in BHK Cells:
TRPV4 channel activation results in an influx of divalent and monovalent cations including calcium. The resulting changes in intracellular calcium were monitored using a calcium specific fluorescent dye Fluo-4 (MDS Analytical Technologies). BHK/AC9 cells transduced with BacMam virus expressing the human TRPV4 gene at a MOI of 78 were plated in a 384 well poly-D lysine coated plate (15,000 cells/well in 50 μL culture medium containing DMEM/F12 with 15 mM HEPES, 10% FBS, 1% Penicillin-Streptomycin and 1% L-glutamine). Cells were incubated for 24 hours at 37° C. and 5% CO2. Culture medium was then aspirated using a Tecan plate-washer and replaced with 20 μL/well of dye loading buffer: HBSS, 500 μM Brilliant Black (MDS Analytical Technologies), and 2 μM Fluo-4 AM. Dye loaded plates were then incubated in the dark at room temperature for 1˜1.5 hours.

Where [1] appears, read: inhibition of Agonist Compound-induced calcium signal (agonist at EC80), BHK/AC9 cells expressing human TRPV4, read-out: IC50.
Where [2] appears, read: average in at least one set of experimental runs, inhibition of Agonist Compound-induced calcium signal, read-out: average IC50.

Where two headings read alike, the source gives them in different places.

Chain of human TRPV4 (Q9HBA0 whole entry): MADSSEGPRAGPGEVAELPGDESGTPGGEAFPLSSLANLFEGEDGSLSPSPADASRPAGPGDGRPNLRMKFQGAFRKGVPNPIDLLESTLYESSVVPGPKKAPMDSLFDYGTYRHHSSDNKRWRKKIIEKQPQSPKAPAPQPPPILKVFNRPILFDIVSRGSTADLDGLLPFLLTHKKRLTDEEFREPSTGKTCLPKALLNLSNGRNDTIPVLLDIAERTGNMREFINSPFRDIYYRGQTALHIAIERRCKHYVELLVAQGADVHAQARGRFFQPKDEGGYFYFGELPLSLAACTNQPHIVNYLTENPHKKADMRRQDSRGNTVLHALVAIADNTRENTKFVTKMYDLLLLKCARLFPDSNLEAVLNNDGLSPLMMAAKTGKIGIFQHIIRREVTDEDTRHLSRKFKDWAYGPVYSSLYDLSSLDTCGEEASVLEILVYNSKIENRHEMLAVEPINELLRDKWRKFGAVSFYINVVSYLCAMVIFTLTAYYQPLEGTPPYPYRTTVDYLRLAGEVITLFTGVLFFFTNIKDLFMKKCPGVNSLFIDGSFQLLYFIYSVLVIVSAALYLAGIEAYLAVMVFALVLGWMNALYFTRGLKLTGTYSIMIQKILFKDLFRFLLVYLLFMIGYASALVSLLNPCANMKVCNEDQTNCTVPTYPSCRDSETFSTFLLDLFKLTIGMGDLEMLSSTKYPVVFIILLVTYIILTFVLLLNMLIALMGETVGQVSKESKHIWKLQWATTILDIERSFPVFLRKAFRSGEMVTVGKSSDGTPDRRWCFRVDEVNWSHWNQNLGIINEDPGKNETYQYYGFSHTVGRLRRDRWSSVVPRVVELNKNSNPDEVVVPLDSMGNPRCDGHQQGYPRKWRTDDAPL

With `N#Cc1ccc(S(=O)(=O)N2C[C@H](Cc3ccc(C#N)c(F)c3)[C@](O)(CO)C2)c(Cl)c1` [Example 6, 4-(((3S,4R)-1-((2-chloro-4-cyanophenyl)sulfonyl)-4-hydroxy-4-(hydroxymethyl)pyrrolidin-3-yl)methyl)-2-fluorobenzonitrile], the IC50 under setting [1] lay in the range of 0.1 to 10 nM.

Turning to `N#Cc1ccc(C[C@H]2CN(S(=O)(=O)c3ccc(C(F)(F)F)cc3Cl)C[C@@]2(O)CO)cc1` [Example 2, 4-(((3S,4R)-1-((2-chloro-4-(trifluoromethyl)phenyl)sulfonyl)-4-hydroxy-4-(hydroxymethyl)pyrrolidin-3-yl)methyl)benzonitrile], under setting [1], the IC50 was in the range of 10 to 100 nM. The same measure, in the same setting: to `N#Cc1ccc(C[C@H]2CN(S(=O)(=O)c3ccc(Cl)cc3Cl)C[C@]2(O)CO)cc1F` [Example 4, 4-(((3S,4S)-1-((2,4-dichlorophenyl)sulfonyl)-4-hydroxy-4-(hydroxymethyl)pyrrolidin-3-yl)methyl)-2-fluorobenzonitrile] belongs 10 to 100 nM. On to `N#Cc1ccc(C[C@H]2CN(S(=O)(=O)c3ccc(Cl)cn3)C[C@@]2(O)CO)c(OCC(F)(F)F)c1` [Example 3, 4-(((3S,4R)-1-((5-chloropyridin-2-yl)sulfonyl)-4-hydroxy-4-(hydroxymethyl)pyrrolidin-3-yl)methyl)-3-(2,2,2-trifluoroethoxy)benzonitrile], for which, under setting [1], the IC50 was 10 to 100 nM. The same measure, in the same setting: to `N#Cc1ccc(C[C@H]2CN(S(=O)(=O)c3ccc(C(F)(F)F)cc3C#N)C[C@@]2(O)CO)cc1F` [Example 5, 4-(((3S,4R)-1-((2-cyano-4-(trifluoromethyl)phenyl)sulfonyl)-4-hydroxy-4-(hydroxymethyl)pyrrolidin-3-yl)methyl)-2-fluorobenzonitrile] belongs 0.1 to 10 nM. In the case of `N#Cc1ccc(C[C@H]2CN(S(=O)(=O)c3ccc(Cl)cc3Cl)C[C@@]2(O)CO)cc1F` [Example 1, 4-(((3S,4R)-1-((2,4-dichlorophenyl)sulfonyl)-4-hydroxy-4-(hydroxymethyl)pyrrolidin-3-yl)methyl)-2-fluorobenzonitrile], the 50% inhibitory concentration (IC50) was 8 nM under setting [2] and 0.1 to 10 nM under setting [1]. The matching figures for `N#Cc1ccc(C[C@H]2CN(S(=O)(=O)c3ccc(Cl)cn3)C[C@@]2(O)CN)cc1F` [Example 7, 4-(((3S,4S)-4-(aminomethyl)-1-((5-chloropyridin-2-yl)sulfonyl)-4-hydroxypyrrolidin-3-yl)methyl)-2-fluorobenzonitrile]: 10 nM and 0.1 to 10 nM.
